Assays:
[1] = tested on: Salmonella typhimurium TA100; test: AMES test, mutagenic evaluation in Salmonella typhimurium TA100 strain with/without metabolic activation (S9); format: cell-based
Description: (§1) The procedure was firstly developed by (MARON, D. M. and AMES, B. N. Mut. Res. v. 113, pp. 173-215, 1983)
(§2) For this assay, Salmonella typhimurium TA100 and TA102 strains from the mutagenicity laboratory of the “Faculdade de Ciências Farmacêuticas—UNESP Araraquara” were used. Such strains have the following characteristics: (AMES, 1983)
(§3) The positive controls are mutagenic compounds specific for each strain and test condition, with 25 μL/plate of sodium azide (1.25 μg/plate) and 100 μL of mitomycin (0.5 μg/plate) being the controls for TA100 and TA102, respectively, in the absence of metabolic activation. For assays with metabolic activation, the positive control for TA100 is 50 μL 2-antramine (1.25 μg/plate) and for TA102 it is 50 μL 2-aminofluorene (1.25 μg/plate).
(§4) The preincubation method was used.
(§5) In laminar flow, Salmonella typhimurium (TA100 and TA 102) strains were inoculated individually with a platinum loop, in the respective nutrient broths and maintained at 37° C., under constant stirring (160 rpm) during 14 hours, in order to achieve a density of 1 to 2×10^9 bacteria/mL.
(§6) Different concentrations of the compounds were added into 100 μL of 0.2M phosphate buffer pH 7.4 (or 500 μL of the mixture S9 in metabolic activation assays) and incubated for 20-30 minutes at 37° C. Solutions containing the compounds had DMSO as the solvent. Thereafter, 2 mL of top agar supplemented with traces of histidine and biotin was added, homogenized and plated in glycosylated minimum medium. After solidification of the top agar, the plates were incubated for 48 hours at a 37° C. Then, the counting of the number of revertant colonies per plate was performed. All tested concentrations, positive and negative controls were run in triplicate.
(§7) After 48 hours, the revertant colonies were counted manually, and the protoCOL Colony Counter Version 3.15.630 (1998-2001) SYNBIOSIS LTD system was used for the positive control.
(§8) The final data obtained from the assay was analyzed using the statistical software Salanal (Salmonella Assay Analysis) version 1.0 from the Research Triangle Institute, RTP, North Carolina, USA. Such software allows the dose-response effect to be evaluated by means of analysis of variance (ANOVA-test F) computations between the measurement of the number of revertants at the different tested concentrations (doses) and the negative control, followed by a linear regression. The software model chosen for analyzing the data was Bernstein's (BERNSTEIN, L. et al. Mutat. Res. v. 97, p. 267-281, 1982). The slope of the straight line from the linear portion of the dose-response curve is also provided by this software and corresponds to the number of revertants induced per measurement unit of the analyzed sample.
(§9) From the results, the mutagenicity ratio (MR) was computed for each analyzed dose from each compound. MR is given by the following equation:
(§10) MR=average number of revertants per test plate (spontaneous+induced revertants) […] average number of revertants per plate of the negative control (spontaneous revertants)
(§11) The spontaneous growing means that the number of revertants which developed on the plate, regardless of being induced or not, wherein values higher or equal to 2 are considered as a positive response (VALENT, G. V. et al. Env. Toxicol. Water Quality. v. 8, p. 371-381, 1993).
(§12) The mutagenicity test with metabolic activation system was performed with a microsomal fraction S9 (S9 mix) prepared from a liver homogenizate from Sprague Dawley rats, previously treated with Aroclor 1254, acquired in the freeze-dried form.
(§13) The procedure for this assay is the same, however, instead of the buffer, 500 μL of the S9 mixture should be added.
(§14) The S9 mixture has a viability of 4 hours from preparation when put on ice. The plates are then incubated for 48 hours at 37° C. After the required time has elapsed, the counting of the revertant colonies was carried out. All tested concentrations, positive and negative controls were run in triplicate.

[2] = tested on: Salmonella typhimurium TA102; test: AMES test, mutagenic evaluation in Salmonella typhimurium TA102 strain with/without metabolic activation (S9); format: cell-based
Description: as §1, §2, §3, §4, §5, §6, §7, §8, §9, §10, §11, §12, §13, §14

[3] = tested on: leukocyte infiltration, peritonitis induced by thioglycolate; test: Peritonitis assay induced by 3% thioglycolate; format: in vivo; settings: 300 μMol/Kg orally, mouse, 3% thioglycolate i.p., 4 h
Description: In a second assay, the number of total leukocytes (10^6/mL) was evaluated in order to evaluate the ability to inhibit their infiltration in the inflammatory process.
The mice were treated with the substances being analyzed or carrier and after 1 h of oral administration, they were simultaneously subjected to the peritonitis assay, by administering intraperitoneally 1 ml of a 3% thioglycolate solution. 4 h after the administration of thioglycolate, the peritoneal cavity was washed with 3 ml of a HANKS solution (Balanced salt solution, free of Ca^2+ and Mg^2+). Next, the peritoneal wash was analyzed and the total counting of white blood cells was made in a Newbauer's chamber under an optical microscope with a 40× objective.

gamma-globin mRNA = settings: 48 hours, data in the literature; cited from earlier work

O=C1c2ccccc2C(=O)N1c1cccc(CO[N+](=O)[O-])c1 [Compound IC, 3-(1,3-dioxo-1,3-dihydro-2H-isoindol-2-yl)benzyl nitrate]
mutagenicity ratio (MR) ([1]; TA 100, +S9, 0.224 μmol/plate): 1.27 | number of revertants per plate ([1]; TA 100, +S9, 0.224 μmol/plate): 165 ± 13.2 revertants/plate | mutagenicity ratio (MR) ([1]; TA 100, +S9, 0.488 μmol/plate): 1.18 | number of revertants per plate ([1]; TA 100, +S9, 0.488 μmol/plate): 153 ± 13.1 revertants/plate | mutagenicity ratio (MR) ([1]; TA 100, +S9, 0.896 μmol/plate): 1.12 | number of revertants per plate ([1]; TA 100, +S9, 0.896 μmol/plate): 146 ± 5 revertants/plate | mutagenicity ratio (MR) ([1]; TA 100, +S9, 1.8 μmol/plate): 1.26 | number of revertants per plate ([1]; TA 100, +S9, 1.8 μmol/plate): 163 ± 22.5 revertants/plate | mutagenicity ratio (MR) ([1]; TA 100, +S9, 3.58 μmol/plate): 1.22 | number of revertants per plate ([1]; TA 100, +S9, 3.58 μmol/plate): 158.3 ± 9.3 revertants/plate | mutagenicity ratio (MR) ([1]; TA 100, −S9, 0.224 μmol/plate): 1.21 | number of revertants per plate ([1]; TA 100, −S9, 0.224 μmol/plate): 216.7 ± 10.2 revertants/plate | mutagenicity ratio (MR) ([1]; TA 100, −S9, 0.488 μmol/plate): 1.25 | number of revertants per plate ([1]; TA 100, −S9, 0.488 μmol/plate): 224.5 ± 24.6 revertants/plate | mutagenicity ratio (MR) ([1]; TA 100, −S9, 0.896 μmol/plate): 1.48 | number of revertants per plate ([1]; TA 100, −S9, 0.896 μmol/plate): 266.3 ± 8.4 revertants/plate | mutagenicity ratio (MR) ([1]; TA 100, −S9, 1.8 μmol/plate): 1.34 | number of revertants per plate ([1]; TA 100, −S9, 1.8 μmol/plate): 239.7 ± 11.3 revertants/plate | mutagenicity ratio (MR) ([1]; TA 100, −S9, 3.58 μmol/plate): 1.8 | number of revertants per plate ([1]; TA 100, −S9, 3.58 μmol/plate): 323.7 ± 10.2 revertants/plate | mutagenicity (AMES test, overall) ([1]; TA100 and TA102, with and without S9, at the concentrations used): did not show mutagenicity | mutagenicity ratio (MR) ([2]; TA 102, +S9, 0.224 μmol/plate): 0.73 | number of revertants per plate ([2]; TA 102, +S9, 0.224 μmol/plate): 272 ± 26 revertants/plate | mutagenicity ratio (MR) ([2]; TA 102, +S9, 0.488 μmol/plate): 1.01 | number of revertants per plate ([2]; TA 102, +S9, 0.488 μmol/plate): 378 ± 6.1 revertants/plate | mutagenicity ratio (MR) ([2]; TA 102, +S9, 0.896 μmol/plate): 1.09 | number of revertants per plate ([2]; TA 102, +S9, 0.896 μmol/plate): 405 ± 11 revertants/plate | mutagenicity ratio (MR) ([2]; TA 102, +S9, 1.8 μmol/plate): 1.07 | number of revertants per plate ([2]; TA 102, +S9, 1.8 μmol/plate): 399.3 ± 40 revertants/plate | mutagenicity ratio (MR) ([2]; TA 102, +S9, 3.58 μmol/plate): 1.15 | number of revertants per plate ([2]; TA 102, +S9, 3.58 μmol/plate): 431 ± 17.9 revertants/plate | mutagenicity ratio (MR) ([2]; TA 102, −S9, 0.224 μmol/plate): 1.10 | number of revertants per plate ([2]; TA 102, −S9, 0.224 μmol/plate): 281 ± 25 revertants/plate | mutagenicity ratio (MR) ([2]; TA 102, −S9, 0.488 μmol/plate): 1.12 | number of revertants per plate ([2]; TA 102, −S9, 0.488 μmol/plate): 286 ± 4.2 revertants/plate | mutagenicity ratio (MR) ([2]; TA 102, −S9, 0.896 μmol/plate): 1.19 | number of revertants per plate ([2]; TA 102, −S9, 0.896 μmol/plate): 303 ± 9.2 revertants/plate | mutagenicity ratio (MR) ([2]; TA 102, −S9, 1.8 μmol/plate): 1.55 | number of revertants per plate ([2]; TA 102, −S9, 1.8 μmol/plate): 395.7 ± 9 revertants/plate | mutagenicity ratio (MR) ([2]; TA 102, −S9, 3.58 μmol/plate): 1.52 | number of revertants per plate ([2]; TA 102, −S9, 3.58 μmol/plate): 387 ± 9.7 revertants/plate | Cell Number avg (×106), total leukocytes [3]: 3.2 ×106 | Inhibition % (leukocyte infiltrate) [3]: 42.85%

NC(=O)NO [HU, Hydroxyurea]
concentration producing comparable activity on gamma-globin expression (gamma-globin mRNA): 10 µM
